In patent US10100079B2, “Progesterone-cationic lipid hybrid as anticancer agent and the process of synthesis thereof” (Council of Scientific & Industrial Research, priority 2016, dated 2018):

Key:
CHO = assay: Apoptosis by flow cytometry (annexin V-FITC/PI), CHO; assay type: cell-based, Chinese hamster; settings: 10 μM, 36 h
Protocol: (§1) Apoptosis study was performed by flow cytometry using annexin V-FITC-labeled apoptosis detection kit (Sigma) following manufacturer's protocol. Cells (□×□□^□ cells/well) were seeded in six-well plates and incubate for 16-18 h. After 16-18 h, cells were either kept untreated or treated with 10 μM compound 1 and 10 μM 6c for 36 h. Next, cells were trypsinized and washed with PBS. Then the cells were re-suspended in 1× binding buffer at a density of 1×10^6 cells/ml and stained simultaneously with FITC-labeled annexin V (25 ng/ml) and propidium iodide (50 ng/ml). After 15 min incubation, cells were analyzed using a flow cytometer (FACS Canto II, Becton-Dickinson, San Jose, Calif., USA), and data were analyzed with FCS Express V3 software. Minimum of 10000 events were gated per sample.

B16F10 tumor sections = assay: TUNEL assay with VE-cadherin staining on tumor sections; assay type: in vivo, mice
Protocol: After completion of the in vivo experiment, one mouse from each group was sacrificed to check the apoptosis in tumor mass. First the tumors were frozen in Jung tissue medium (Leica Microsystem, Germany) followed by cryo-sectioning of 10 μm thin sections using Leica CM1850 cryostat (Germany). These were then fixed into 4% formalin for 15 min. TUNEL assay was carried out using Dead-End fluorometric apoptosis detection kit ([…]) following manufacturer's protocol. The same cryosections were washed with PBS and incubated with VE-cadherin mouse monoclonal antibody at 1:200 dilutions (Santa Cruz Biotech.) for 2 h at 4° C. to stain the blood vessel, followed by one hour incubation with goat anti-mouse IgG-PE (Santa Cruz Biotech.) secondary antibody; after that tissue sections were washed and observed under Nikon TE2000E microscope at 10× magnification.

B16F10 = assay: Apoptosis by flow cytometry (annexin V-FITC/PI), B16F10; assay type: cell-based, murine; settings: B16F10, 10 μM, 36 h
Protocol: as §1

B16F10 tumor = assay: In vivo tumor study, B16F10 melanoma model; set-up: species or system C57BL6/J mice; settings: 15 mg/Kg i.p., 5 injections
Protocol: 6-8 weeks old female C57BL6/J mice, obtained from CCMB (Hyderabad, India), were subcutaneously inoculated with 2.5×10^5 B16F10 cells in the lower left abdomen. Thirteen days after B16F10 cell inoculation, mice were grouped as per the treatment where each group contained 5 mice. The groups were as follows (i) untreated group, (ii) treated with progesterone (compound 1) (6 mg/Kg) and (iii) 6c (15 mg/Kg). Each compound suspended in PBS containing 10% DMSO and injected intraperitoneally to the respective mice. Five injections were given with a gap of 2 days. The tumor sizes were measured in volume (mm^3) and calculated using the formula (0.5ab^2), where ‘a’ represents the longest dimension and ‘b’ is the shortest dimension of the tumors. Experiment was terminated when the average tumor volume of the untreated group reached ˜4000 mm^3. All animal work was done following the protocols approved by Institutional Animal Ethical Committee of CSIR-IICT, India.

[1] = tested on: apoptosis related protein in B16F10 cells; assay: Western blot of B16F10 cell lysates: apoptosis related protein (FIG. 4A); assay type: cell-based, murine; settings: B16F10, 10 μM, 36 h
Protocol: (§2) For in vitro cell lysate preparation, B16F10 cells were either treated with compound 1 (10 μM), 6c (10 μM) or kept untreated for 36 h continuously. After that cells were washed with cold PBS for two times, and lysed by incubating for 30 min on ice with ice-cold RIPA lysis buffer (50 mM Tris [pH 7.5], 1% NP-40, 150 mM NaCl, 0.1% sodium dodecyl sulfate [SDS], 0.5% sodium deoxycholate) containing 1% proteinase inhibitor cocktails (PIC) (Cell Signaling Technology). Following 30 min of incubation cells were centrifuged at 14,000 rpm at 4° C. for 15 minutes, supernatant was collected, and Protein concentration was measured by using BCA assay a kit (thermo scientific). For in vivo whole cell lysate, after completion of the in vivo experiment one C57BL/6J mice with representative tumor size from each group was sacrificed and tumor was collected, lysed by ice-cold RIPA buffer with 1% PIC, whole cell lysate was prepared following the same steps as mentioned above. Respective cell lysates were run in SDS-PAGE gel (8%-15%) and then the bands were transferred to polyvinylidene fluoride (PVDF) membrane. Membranes were then first incubated with respective primary antibodies and then with alkaline phosphates conjugated secondary antibody (Goat-anti-rabbit and Goat-anti-mouse). Immunodetection was performed with BCIP/NBT substrate (Sigma-Aldrich).
Cytochrome-C (4272S), BAX (2772S), Bcl-2 (2876S), Cassepase-3 (9665S), β-actin (8457S), PI3K-p110α (4249S), PI3K-p85 (4257S), AKT (272S), p-AKT (4060S), PTEN (9552S), p-mdm2 (3521S), p53 (2524S), GAPDH (5174S) were purchased from Cell Signaling Technology; Casepase-9 (PA5-16358) was purchased from Pierce; mdm2 (ab38618) was purchased from Abcam; secondary antibodies mouse anti-rabbit IgG-PE (sc-3753) was purchased from Santa Cruz Biotechnology; Goat anti-mouse IgG Alkaline Phosphatase (DC05L) and goat anti-rabbit IgG Alkaline Phosphatase (DC06L) were purchased from Calbiochem.

[2] = tested on: B16F10 tumor lysate proteins; assay: Western blot analysis with B16F10 tumor lysates (FIG. 5B); set-up: species or system C57BL/6J mice; settings: B16F10 tumor lysate after in vivo treatment
Protocol: as §2, with “(Sigma-Aldrich). […]” for “(Sigma-Aldrich).”

T47D = assay: Apoptosis by flow cytometry (annexin V-FITC/PI), T47D; assay type: cell-based, human; settings: 10 μM, 36 h
Protocol: as §1

CCCCCCCCCC[N+](C)(CCCCCCCCCC)CCNC(=O)CCC(=O)O[C@@H](C)[C@H]1CCC2C3CCC4=CC(=O)CC[C@]4(C)C3CC[C@@]21C (stereo partly drawn) [Compound 6c, N-decyl-N-(2-(4-((1S)-1-((10R,13S,17S)-10,13-dimethyl-3-oxo-2,3,6,7,8,9,10,11,12,13,14, 15,16,17-tetradecahydro-1H-cyclopenta[a]phenanthren-17-yl)ethoxy)-4-oxobutanamido)ethyl)-N-methyldecan-1-aminium chloride]
apoptosis in normal cell (CHO): largely remains unaffected | extent of apoptosis induced in the blood vessel (B16F10 tumor sections; TUNEL / VE-cadherin merge, tumor sections): very high | number of apoptotic cells in tumor compared to untreated or PR (B16F10 tumor sections; TUNEL, tumor sections of treated mice): significantly higher | apoptotic cell (B16F10): 53.22% | tumor growth and aggression versus UT and progesterone-treated groups (B16F10 tumor; B16F10 in C57BL6/J mice): significant inhibition | tumor size of UT group compared to treated group (B16F10 tumor; day 25 from tumor cell inoculation): ~4 times | BAX/Bcl-2 ratio compared to untreated group [1]: ~4 fold | caspase 3 expression [1]: increase in level | caspase 9 [1]: formation of active caspase 9 | cytochrome C expression [1]: elevated expression | caspase 3 in tumor lysate [2]: increase | p53 expression level in tumor lysate [2]: significant increase | apoptotic cell (T47D): 73%
